Assay results from patent US6890920B2, “Quaternary ammonium compounds” (Pharmacia & Upjohn Company, priority 1992, dated 2005).
Read-outs that look alike come from different tables or passages of the source.

Columns and labels:
muscarinic receptor M3 = target: T1, muscarinic receptor M3 (Homo sapiens, UniProt P20309); assay: Muscarinic receptor subtype M3 binding assay, radioligand displacement; details: Ki values, receptor subtype M3
T1 construct: expressed in transfected cells
Method: (§1) Muscarinic receptor subtype M1-M5 binding assays were carried out. Briefly, [3]H-methylscopolamine was allowed to bind to membranes from various recombinant mammalian cell lines, each with an over-expression of a particular receptor subtype.
(§2) Muscarinic receptor subtype M1-M5 binding assays were performed.

[1] = tested on: methacholine-induced bronchoconstriction in Balb/c mice; assay: Bronchodilatory effect of inhaled compounds, Example II (10 min to 48 h)
Method: Female BALB/c mice, weight range 19-22 g, were obtained from Charles River Laboratories (Kingston, N.C.). They received food and water ad libitum.
Compounds for aerosol administration were prepared in sterile Dulbecco's Phosphate Buffered Saline.
Mice were placed in a carousel-style, nose only, exposure chamber and allowed to inhale aerosols for five minutes, using an ICN SPAG-2 nebulizer.
Bronchoconstriction was induced in mice by administration of an 80 mg/ml methacholine (MC) aerosol into the plethysmograph chambers for 5 minutes. […] The average enhanced pause (lung resistance) was determined. In order to determine the baseline, saline aerosol (without methacholine) was also separately administered to the mice.

muscarinic receptor M1 = target: T2, muscarinic receptor M1 (Homo sapiens, UniProt P11229); assay: Muscarinic receptor subtype M1 binding assay, radioligand displacement
T2 construct: expressed in transfected cells
T2 sequence (P11229 1-460): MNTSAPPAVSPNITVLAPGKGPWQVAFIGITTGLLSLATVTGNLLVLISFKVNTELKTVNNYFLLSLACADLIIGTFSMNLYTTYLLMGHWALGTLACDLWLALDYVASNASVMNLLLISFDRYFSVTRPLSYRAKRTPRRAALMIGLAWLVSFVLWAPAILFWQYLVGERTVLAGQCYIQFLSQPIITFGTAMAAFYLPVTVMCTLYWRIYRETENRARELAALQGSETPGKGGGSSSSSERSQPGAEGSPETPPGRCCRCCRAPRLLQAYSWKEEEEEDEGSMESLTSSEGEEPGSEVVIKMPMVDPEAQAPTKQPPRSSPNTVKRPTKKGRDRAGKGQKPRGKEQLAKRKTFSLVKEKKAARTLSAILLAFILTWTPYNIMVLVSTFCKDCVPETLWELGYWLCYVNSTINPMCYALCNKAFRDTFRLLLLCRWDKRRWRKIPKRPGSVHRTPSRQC
Method: as §1, §2

muscarinic receptor M4 = target: T3, muscarinic receptor M4 (Homo sapiens, UniProt P08173); assay: Muscarinic receptor subtype M4 binding assay, radioligand displacement
T3 construct: expressed in transfected cells
T3 sequence (P08173 1-479): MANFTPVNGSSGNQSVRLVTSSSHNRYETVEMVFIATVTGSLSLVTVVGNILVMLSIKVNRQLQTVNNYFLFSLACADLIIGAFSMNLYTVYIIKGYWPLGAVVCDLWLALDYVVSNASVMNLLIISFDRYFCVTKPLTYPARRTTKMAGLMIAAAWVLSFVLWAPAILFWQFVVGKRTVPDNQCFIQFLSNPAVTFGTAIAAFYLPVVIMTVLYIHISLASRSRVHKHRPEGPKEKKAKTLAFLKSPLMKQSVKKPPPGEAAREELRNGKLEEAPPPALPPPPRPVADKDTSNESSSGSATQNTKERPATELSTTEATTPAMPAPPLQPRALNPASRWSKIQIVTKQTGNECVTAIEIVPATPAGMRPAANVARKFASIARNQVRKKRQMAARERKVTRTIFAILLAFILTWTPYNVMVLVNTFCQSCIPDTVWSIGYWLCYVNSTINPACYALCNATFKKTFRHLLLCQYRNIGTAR
Method: as §1, §2

[2] = Pharmacokinetics of inhaled quaternary ammonium salts, plasma levels; format: in vivo, Balb/c mice
Method: Blood samples were taken from the mice in example II via cardiac puncture under isoflurane anesthesia at 2.5 minutes, 10 minutes, 30 minutes, 2 hours, 4 hours, 8 hours, or 12 hours after aerosol drug treatment.
The samples were collected in tubes containing EDTA and centrifuged at 12000×g for four minutes. Plasma was removed and stored at −70° C. until assay.
Plasma samples were extracted via a liquid/liquid extraction technique. […] Chromatographically, the analyte and the internal standard were resolved on a Phenomenex Phenyl-Hexyl column using an isocratic elution. The limit of quantitation was 24 pg/ml.

muscarinic receptor M2 = target: T4, muscarinic receptor M2 (Homo sapiens, UniProt P08172); assay: Muscarinic receptor subtype M2 binding assay, radioligand displacement
T4 construct: expressed in transfected cells
T4 sequence (P08172 1-466): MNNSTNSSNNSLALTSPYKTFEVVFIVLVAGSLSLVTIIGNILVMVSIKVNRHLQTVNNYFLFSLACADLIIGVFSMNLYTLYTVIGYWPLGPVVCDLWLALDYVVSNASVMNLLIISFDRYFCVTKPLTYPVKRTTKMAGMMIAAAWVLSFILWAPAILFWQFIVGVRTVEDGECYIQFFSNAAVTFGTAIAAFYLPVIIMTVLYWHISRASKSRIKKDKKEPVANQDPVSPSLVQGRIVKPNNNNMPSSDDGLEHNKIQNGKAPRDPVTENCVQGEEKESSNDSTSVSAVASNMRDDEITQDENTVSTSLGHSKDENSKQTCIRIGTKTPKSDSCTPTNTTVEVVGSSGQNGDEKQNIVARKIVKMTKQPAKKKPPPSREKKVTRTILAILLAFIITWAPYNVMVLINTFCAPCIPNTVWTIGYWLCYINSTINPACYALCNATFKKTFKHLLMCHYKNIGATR
Method: as §1, §2

muscarinic receptor M5 = target: T5, muscarinic receptor M5 (Homo sapiens, UniProt P08912); assay: Muscarinic receptor subtype M5 binding assay, radioligand displacement; details: Ki values, receptor subtype M5, [3]H-methylscopolamine displacement, membranes from recombinant mammalian cell lines
T5 construct: expressed in transfected cells
T5 sequence (P08912 1-532): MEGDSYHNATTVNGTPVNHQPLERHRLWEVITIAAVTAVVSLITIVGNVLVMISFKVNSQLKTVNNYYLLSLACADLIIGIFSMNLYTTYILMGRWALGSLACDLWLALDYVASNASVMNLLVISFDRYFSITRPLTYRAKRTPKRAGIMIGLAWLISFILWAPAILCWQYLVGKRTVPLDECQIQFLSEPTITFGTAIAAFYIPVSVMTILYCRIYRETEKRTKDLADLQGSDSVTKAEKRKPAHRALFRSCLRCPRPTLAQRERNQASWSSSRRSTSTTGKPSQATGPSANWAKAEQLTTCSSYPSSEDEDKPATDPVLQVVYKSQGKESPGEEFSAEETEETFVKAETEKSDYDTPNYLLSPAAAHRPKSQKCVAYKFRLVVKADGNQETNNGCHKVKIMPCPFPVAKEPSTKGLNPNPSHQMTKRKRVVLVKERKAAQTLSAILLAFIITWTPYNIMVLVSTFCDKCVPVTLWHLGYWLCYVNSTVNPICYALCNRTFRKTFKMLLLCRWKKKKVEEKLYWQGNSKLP
Method: as §1, §2

[3] = Balb/c, mouse, plasma, inhaled, inhalation of 0.072 mg/ml, read-out: Plasma concentration ± std dev
[4] = Balb/c, mouse, plasma, inhaled, inhalation of 0.144 mg/ml, read-out: Plasma concentration ± std dev
[5] = Balb/c, mouse, plasma, inhaled, inhalation of 1.44 mg/ml, read-out: Plasma concentration ± std dev

T1 sequence (P20309 whole entry): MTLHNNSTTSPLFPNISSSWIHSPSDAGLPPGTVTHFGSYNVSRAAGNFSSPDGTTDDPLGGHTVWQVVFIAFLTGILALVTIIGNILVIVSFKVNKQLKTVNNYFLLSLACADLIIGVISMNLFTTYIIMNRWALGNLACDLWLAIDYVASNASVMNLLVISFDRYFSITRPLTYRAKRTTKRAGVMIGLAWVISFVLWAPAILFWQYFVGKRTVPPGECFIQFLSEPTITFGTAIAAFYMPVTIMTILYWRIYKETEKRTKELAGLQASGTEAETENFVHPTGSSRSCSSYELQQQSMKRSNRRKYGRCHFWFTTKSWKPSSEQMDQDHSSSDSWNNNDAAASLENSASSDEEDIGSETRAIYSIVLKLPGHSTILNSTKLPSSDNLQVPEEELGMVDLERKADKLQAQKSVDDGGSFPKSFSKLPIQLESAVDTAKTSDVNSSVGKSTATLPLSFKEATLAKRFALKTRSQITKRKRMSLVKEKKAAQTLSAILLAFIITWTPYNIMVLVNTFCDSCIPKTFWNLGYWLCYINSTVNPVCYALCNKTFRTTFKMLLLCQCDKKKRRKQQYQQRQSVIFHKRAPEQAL

## Cc1ccc(O)c([C@H](CC[N+](C)(C(C)C)C(C)C)c2ccccc2)c1.[I-] [Example 2]
Muscarinic receptor M3
  Ki: 0.2 nM
[1]; inhalation of aerosol from 0.072 mg/ml solution, FIG. 3
  prevention of methacholine-induced bronchoconstriction, time following administration: 8 h
[1]; inhalation of aerosol from 0.144 mg/ml solution, FIG. 2
  prevention of methacholine-induced bronchoconstriction, time following administration: 24 h
[1]; inhalation of aerosol from 1.44 mg/ml solution, FIG. 1
  complete block of methacholine-induced bronchoconstriction, time following administration: 36 h
Muscarinic receptor M1
  Ki: 0.33 nM
Muscarinic receptor M4
  Ki: 0.39 nM
[2]; [3]
  concentration at 2.5 min: 0.136 ± 0.038 ng/mL
  concentration at 10 min: 0.09 ± 0.001 ng/mL
  concentration at 30 min: 0.081 ± 0.008 ng/mL
  concentration at 2 h: 0.041 ± 0.006 ng/mL
  concentration at 4 h: 0.014 ± 0.001 ng/mL
[2]; [4]
  concentration at 2.5 min: 0.264 ± 0.021 ng/mL
  concentration at 10 min: 0.162 ± 0.011 ng/mL
  concentration at 30 min: 0.112 ± 0.01 ng/mL
  concentration at 2 h: 0.055 ± 0.007 ng/mL
  concentration at 4 h: 0.04 ± 0.003 ng/mL
  concentration at 8 h: 0.012 ± 0.001 ng/mL
[2]; [5]
  concentration at 2.5 min: 2.68 ± 0.389 ng/mL
  concentration at 10 min: 1.4 ± 0.163 ng/mL
  concentration at 30 min: 1.12 ± 0.042 ng/mL
  concentration at 2 h: 0.245 ± 0.003 ng/mL
  concentration at 4 h: 0.157 ± 0.002 ng/mL
  concentration at 8 h: 0.08 ± 0.002 ng/mL
[2]; Balb/c, mouse, plasma, inhaled, inhalation of 1.44 mg/ml, 12 h, read-out: Plasma concentration ± std dev
  concentration at 12 h: 0.042 ± 0.002 ng/mL
[2]; after aerosol inhalation of 0.072-1.44 mg/ml
  systemic (plasma) exposure: very low
Muscarinic receptor M2
  Ki: 0.45 nM
Muscarinic receptor M5
  Ki: 0.25 nM
